Target: human GPR17 short isoform (Homo sapiens, UniProt Q13304)
Assay: GPR17 cAMP assay (hGPR17 cAMP, TR-FRET, antagonist mode)
Assay type: cell-based
Settings: CHO-K1 cells stably expressing human GPR17 short isoform; EC80 of agonist MDL29,951; forskolin 15 μM; 30 min at room temperature
Description: CHO-K1 cells stably expressing vector containing untagged human GPR17 short isoform (Roche) were cultured at 37° C./5% CO2 in DMEM (Dulbecco's Modified Eagle Medium): F-12 (1:1) supplemented with 10% foetal bovine serum and 400 μg/ml Geneticin.
Changes in intracellular cyclic adenosine monophosphate (cAMP) levels were quantified using the Nano-TRF Detection Assay kit (Roche Diagnostics, Cat. No. 05214386001). This assay allows for direct cAMP quantification in a homogeneous solution. CAMP is detected based on time-resolved fluorescence energy transfer (TR-FRET) and competitive binding of ruthenylated cAMP and endogenous cAMP to an anti-cAMP monoclonal antibody labeled with AlexaFluor-700. The Ruthenium complex serves as the FRET donor and transfers energy to AlexaFluor-700. The FRET signal is inversely proportional to the CAMP concentration.
CHO-GPR17S cells were detached with Accutase and resuspended in assay buffer consisting of Hank's Balanced Salt Solution (HBSS), 10 mM HEPES (4-(2-hydroxyethyl) piperazine-1-ethanesulfonic acid solution) and 0.1% bovine serum albumin (pH 7.4). The cells were seeded in black 384-well plates (Corning) at a density of 10′000 cells/20 μl assay buffer until the addition of compounds.
Test antagonist compounds were serially diluted in dimethyl sulfoxide (DMSO) and spotted in 384-well plates. The compounds were then diluted in HBSS buffer supplemented with an EC80 concentration of MDL29,951 (3-(2-Carboxy-4,6-dichloroindol-3-yl) propionic acid) (GPR17 agonist) plus 3-Isobutyl-1-methylxanthine (IBMX) (0.5 mM final concentration) and added to the cells at room temperature. Forskolin (15 μM final concentration) was added 5 minutes after the test compounds and the cells were incubated at room temperature for 30 minutes. The assay was stopped by adding cAMP detection mix (containing detergents for cell lysis) for 90 minutes at room temperature.
Cellular cAMP was measured using a Paradigm reader (Molecular Devices). The raw data was used to calculate the FRET signal based on the assay's P-factor as per cAMP kit instructions. The data was normalized to the maximal activity of a reference antagonist and dose response curves were fitted to the percent activity of the test compounds using a sigmoidal dose response model (Genedata Screener).

Sequence of human GPR17 short isoform (Q13304 29-367): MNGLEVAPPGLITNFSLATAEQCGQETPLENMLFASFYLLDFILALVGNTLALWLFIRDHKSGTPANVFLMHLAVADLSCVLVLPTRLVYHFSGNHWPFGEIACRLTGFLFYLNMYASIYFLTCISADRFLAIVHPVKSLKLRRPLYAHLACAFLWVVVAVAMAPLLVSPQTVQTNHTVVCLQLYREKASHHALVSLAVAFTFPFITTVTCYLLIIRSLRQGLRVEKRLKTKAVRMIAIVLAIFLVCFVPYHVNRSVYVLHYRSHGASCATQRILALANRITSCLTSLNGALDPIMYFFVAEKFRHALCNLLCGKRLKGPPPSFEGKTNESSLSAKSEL

Question: For `COc1nc(NS(=O)(=O)c2cnc3cc(Br)ccn23)nc(OC)c1Br` [Example 46, 7-bromo-N-(5-bromo-4,6-dimethoxy-pyrimidin-2-yl)imidazo[1,2-a]pyridine-3-sulfonamide], which IC50 is on record?
Answer: 82 nM

Question: `COc1nc(NS(=O)(=O)c2cnn3cc(Br)ccc23)c(F)cc1OC(F)F` [Example 99, 6-bromo-N-[5-(difluoromethoxy)-3-fluoro-6-methoxy-2-pyridyl]pyrazolo[1,5-a]pyridine-3-sulfonamide] was tested. Which IC50 did it give?
Answer: 8 nM

Question: `COc1nc(NS(=O)(=O)c2cnc3cc(C)ccn23)nc(OC)c1C` [Example 54, N-(4,6-dimethoxy-5-methyl-pyrimidin-2-yl)-7-methyl-imidazo[1,2-a]pyridine-3-sulfonamide] was tested. Which IC50 did it give?
Answer: 112 nM

Question: With `COc1nc(OCC(F)F)c(F)cc1NS(=O)(=O)c1cnc2n1CCC(C)O2` (centres unmarked) [Example 53, N-[6-(2,2-difluoroethoxy)-5-fluoro-2-methoxy-3-pyridyl]-7-methyl-6,7-dihydro-5H-imidazo[2,1-b][1,3]oxazine-3-sulfonamide] as the compound, how does the IC50 read?
Answer: 101 nM

Question: For `COc1ccn2c(S(=O)(=O)Nc3cc(F)c(CC#N)cc3F)cnc2n1` [Example 73, N-[4-(cyanomethyl)-2,5-difluoro-phenyl]-7-methoxy-imidazo[1,2-a]pyrimidine-3-sulfonamide], which IC50 is on record?
Answer: 876 nM

Question: Which IC50 does the source give for `COc1nc(OCC(F)F)c(F)cc1NS(=O)(=O)c1cnc2c(OC)c(Cl)ccn12` [Example 12, 7-chloro-N-[6-(2,2-difluoroethoxy)-5-fluoro-2-methoxy-3-pyridyl]-8-methoxy-imidazo[1,2-a]pyridine-3-sulfonamide] here?
Answer: 16 nM

Question: Which IC50 does the source give for `COc1nc(OCC(F)F)c(F)cc1NS(=O)(=O)c1cnc2n1CC[C@@H](C)C2` [Example 108, (7R)—N-[6-(2,2-difluoroethoxy)-5-fluoro-2-methoxy-3-pyridyl]-7-methyl-5,6,7,8-tetrahydroimidazo[1,2-a]pyridine-3-sulfonamide] here?
Answer: 16 nM

Question: For `COc1nc(CC#N)c(F)cc1NS(=O)(=O)c1cnn2cc(Br)ccc12` [Example 77, 6-bromo-N-[6-(cyanomethyl)-5-fluoro-2-methoxy-3-pyridyl]pyrazolo[1,5-a]pyridine-3-sulfonamide], which IC50 is on record?
Answer: 6 nM

Question: `COc1nc(OCC(F)F)c(F)cc1NS(=O)(=O)c1cnc2c(C#N)cccn12` [Example 69, 8-cyano-N-[6-(2,2-difluoroethoxy)-5-fluoro-2-methoxy-3-pyridyl]imidazo[1,2-a]pyridine-3-sulfonamide] was tested. Which IC50 did it give?
Answer: 393 nM

Question: With `COc1nc(NS(=O)(=O)c2cnc3cc(Br)ccn23)c(F)cc1CC#N` [Example 21, 7-bromo-N-[5-(cyanomethyl)-3-fluoro-6-methoxy-2-pyridyl]imidazo[1,2-a]pyridine-3-sulfonamide] as the compound, how does the IC50 read?
Answer: 21 nM

Question: With `COc1ccn2c(S(=O)(=O)Nc3cc(F)c(OCC(F)F)nc3OC)cnc2c1C#N` [Example 60, 8-cyano-N-[6-(2,2-difluoroethoxy)-5-fluoro-2-methoxy-3-pyridyl]-7-methoxy-imidazo[1,2-a]pyridine-3-sulfonamide] as the compound, how does the IC50 read?
Answer: 179 nM

Question: `COc1nc(OCC(F)F)c(F)cc1NS(=O)(=O)c1cnc2nc(C)ccn12` [Example 48, N-[6-(2,2-difluoroethoxy)-5-fluoro-2-methoxy-3-pyridyl]-7-methyl-imidazo[1,2-a]pyrimidine-3-sulfonamide] was tested. Which IC50 did it give?
Answer: 85 nM

Question: `COc1nc(OCC(F)F)c(F)cc1NS(=O)(=O)c1cnc2c(C#N)c(C)ccn12` [Example 27, 8-cyano-N-[6-(2,2-difluoroethoxy)-5-fluoro-2-methoxy-3-pyridyl]-7-methyl-imidazo[1,2-a]pyridine-3-sulfonamide] was tested. Which IC50 did it give?
Answer: 31 nM

Question: `O=S(=O)(Nc1cc(F)c(OC(F)F)cc1F)c1cnn2cc(Br)ccc12` [Example 85, 6-bromo-N-[4-(difluoromethoxy)-2,5-difluoro-phenyl]pyrazolo[1,5-a]pyridine-3-sulfonamide] was tested. Which IC50 did it give?
Answer: 251 nM

Question: How did the IC50 turn out when `COc1nc(OCC(F)F)c(F)cc1NS(=O)(=O)c1cnc2c(C)cccn12` [Example 71, N-[6-(2,2-difluoroethoxy)-5-fluoro-2-methoxy-3-pyridyl]-8-methyl-imidazo[1,2-a]pyridine-3-sulfonamide] was run?
Answer: 413 nM

Question: For `O=S(=O)(Nc1cc(F)c(OC(F)F)nc1OC(F)F)c1cnc2cc(Cl)ccn12` [Example 38, N-[2,6-bis(difluoromethoxy)-5-fluoro-3-pyridyl]-7-chloro-imidazo[1,2-a]pyridine-3-sulfonamide], which IC50 is on record?
Answer: 57 nM

Question: How did the IC50 turn out when `N#CCc1cc(F)c(NS(=O)(=O)c2cnc3cc(Cl)ccn23)cc1F` [Example 64, 7-chloro-N-(4-(cyanomethyl)-2,5-difluorophenyl)imidazo[1,2-a]pyridine-3-sulfonamide] was run?
Answer: 251 nM

Question: With `COc1cc(CC#N)c(F)cc1NS(=O)(=O)c1cnc2cc(Br)ccn12` [Example 3, 7-bromo-N-[4-(cyanomethyl)-5-fluoro-2-methoxy-phenyl]imidazo[1,2-a]pyridine-3-sulfonamide] as the compound, how does the IC50 read?
Answer: 7 nM

Question: How did the IC50 turn out when `COc1nc(NS(=O)(=O)c2cnc3cc(Cl)ccn23)c(F)cc1OCC(F)F` [Example 51, 7-chloro-N-[5-(2,2-difluoroethoxy)-3-fluoro-6-methoxy-2-pyridyl]imidazo[1,2-a]pyridine-3-sulfonamide] was run?
Answer: 99 nM

Question: How did the IC50 turn out when `COc1nc(OCC(F)F)c(F)cc1NS(=O)(=O)c1cnn2c1CCC(C)C2` (centres unmarked) [Example 83, N-[6-(2,2-difluoroethoxy)-5-fluoro-2-methoxy-3-pyridyl]-6-methyl-4,5,6,7-tetrahydropyrazolo[1,5-a]pyridine-3-sulfonamide] was run?
Answer: 100 nM

Question: `COc1cc(CC#N)c(F)cc1NS(=O)(=O)c1cnc2cc(C3COC3)ccn12` [Example 101, N-[4-(cyanomethyl)-5-fluoro-2-methoxy-phenyl]-7-(oxetan-3-yl)imidazo[1,2-a]pyridine-3-sulfonamide] was tested. Which IC50 did it give?
Answer: 179 nM

Question: `COc1nc(NS(=O)(=O)c2cnc3cc(Cl)ccn23)c(F)cc1OC(F)F` [Example 40, 7-chloro-N-[5-(difluoromethoxy)-3-fluoro-6-methoxy-2-pyridyl]imidazo[1,2-a]pyridine-3-sulfonamide] was tested. Which IC50 did it give?
Answer: 64 nM

Question: How did the IC50 turn out when `COc1nc(OCC(F)F)c(F)cc1NS(=O)(=O)c1cnc2cc(C3CC3)ccn12` [Example 94, 7-cyclopropyl-N-[6-(2,2-difluoroethoxy)-5-fluoro-2-methoxy-3-pyridyl]imidazo[1,2-a]pyridine-3-sulfonamide] was run?
Answer: 9 nM

Question: How did the IC50 turn out when `COc1nc(OCC(F)F)c(F)cc1NS(=O)(=O)c1cnn2cc(C3COC3)ccc12` [Example 104, N-[6-(2,2-difluoroethoxy)-5-fluoro-2-methoxy-3-pyridyl]-6-(oxetan-3-yl)pyrazolo[1,5-a]pyridine-3-sulfonamide] was run?
Answer: 306 nM

Question: Which IC50 does the source give for `COc1nc(OCC(F)F)c(F)cc1NS(=O)(=O)c1cnc2c(=O)n(C)ccn12` [Example 58, N-[6-(2,2-difluoroethoxy)-5-fluoro-2-methoxy-3-pyridyl]-8-keto-7-methyl-imidazo[1,2-a]pyrazine-3-sulfonamide] here?
Answer: 174 nM

Question: Which IC50 does the source give for `COc1cc(CC#N)c(F)cc1NS(=O)(=O)c1cnc2nc(C3CC3)ccn12` [Example 18, N-[4-(cyanomethyl)-5-fluoro-2-methoxy-phenyl]-7-cyclopropyl-imidazo[1,2-a]pyrimidine-3-sulfonamide] here?
Answer: 19 nM

Question: How did the IC50 turn out when `N#CCc1cc(F)c(NS(=O)(=O)c2cnn3cc(Br)ccc23)cc1F` [Example 92, 6-bromo-N-[4-(cyanomethyl)-2,5-difluoro-phenyl]pyrazolo[1,5-a]pyridine-3-sulfonamide] was run?
Answer: 115 nM

Question: How did the IC50 turn out when `COc1cc(CC#N)c(F)cc1NS(=O)(=O)c1cnc2cc(C3CC3)ccn12` [Example 93, N-[4-(cyanomethyl)-5-fluoro-2-methoxy-phenyl]-7-cyclopropyl-imidazo[1,2-a]pyridine-3-sulfonamide] was run?
Answer: 4 nM

Question: Which IC50 does the source give for `COc1nc(NS(=O)(=O)c2cnn3cc(Br)ccc23)c(F)cc1OCCF` [Example 80, 6-bromo-N-[3-fluoro-5-(2-fluoroethoxy)-6-methoxy-2-pyridyl]pyrazolo[1,5-a]pyridine-3-sulfonamide] here?
Answer: 26 nM

Question: `COc1nc(OCC(F)F)c(F)cc1NS(=O)(=O)c1cnc2n1CCC2C` (centres unmarked) [Example 75, N-[6-(2,2-difluoroethoxy)-5-fluoro-2-methoxy-3-pyridyl]-7-methyl-6,7-dihydro-5H-pyrrol[1,2-a]imidazole-3-sulfonamide] was tested. Which IC50 did it give?
Answer: 974 nM

Question: `COc1nc(NS(=O)(=O)c2cnc3cc(Br)ccn23)c(F)cc1OCCF` [Example 47, 7-bromo-N-[3-fluoro-5-(2-fluoroethoxy)-6-methoxy-2-pyridyl]imidazo[1,2-a]pyridine-3-sulfonamide] was tested. Which IC50 did it give?
Answer: 83 nM

Question: For `COc1nc(OC(F)F)c(F)cc1NS(=O)(=O)c1cnc2c(OC)c(C)ccn12` [Example 19, N-[6-(difluoromethoxy)-5-fluoro-2-methoxy-3-pyridyl]-8-methoxy-7-methyl-imidazo[1,2-a]pyridine-3-sulfonamide], which IC50 is on record?
Answer: 19 nM

— patent US20260242372A1, “NOVEL IMIDAZOPYRIDINE AND PYRAZOLOPYRIDINE SULFONAMIDE DERIVATIVES” (Hoffmann-La Roche Inc., priority 2022, published 2026)
